Data from patent publication US11981677B2, “Further substituted triazolo quinoxaline derivatives” (Grünenthal GmbH, priority 2018, dated 2024).

Molecular target: T1, Glucocorticoid Receptor (Homo sapiens, UniProt P04150)
T1 construct: expressed in transfected cells
T1 sequence (P04150 524-758 limits assumed): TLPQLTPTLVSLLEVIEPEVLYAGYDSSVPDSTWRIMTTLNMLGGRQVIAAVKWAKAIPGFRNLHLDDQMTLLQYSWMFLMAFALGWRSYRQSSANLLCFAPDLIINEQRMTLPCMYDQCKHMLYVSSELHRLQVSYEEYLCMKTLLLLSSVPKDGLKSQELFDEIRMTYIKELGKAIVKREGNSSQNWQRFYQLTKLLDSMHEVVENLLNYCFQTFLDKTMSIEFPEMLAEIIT
Test: Agonistic mode of action on the glucocorticoid receptor (CHO-Gal4/GR luciferase reporter cell line)
Type: cell-based
Conditions: CHO-Gal4/GR luciferase reporter cells; observed in the agonistic assay or the antagonistic assay (mode not given); read-out: IC50 or EC50 range
Description: Potential selective glucocorticoid receptor modulators of this intervention can be tested for modulation of the activity of the glucocorticoid receptor using cell-based assays. These assays involve a Chinese hamster ovary (CHO) cell line which contains fragments of the glucocorticoid receptor as well as fusion proteins. The glucocorticoid receptor fragments used are capable of binding the ligand (e.g. beclomethasone) to identify molecules that compete for binding with glucocorticoid receptor ligands. In more detail, the glucocorticoid receptor ligand binding domain is fused to the DNA binding domain (DBD) of the transcriptionfactor GAL4 (GAL4 DBD-GR) and is stably integrated into a CHO cell line containing a GAL4-UAS-Luciferase reporter construct. […] After cell lysis the luminescence that is produced by luciferase after addition of the substrate is detected and EC50 or IC50 values can be calculated. Engagement of molecules which induce gene expression via glucocortocoid receptor binding to the DNA leads to expression of the luciferase gene under the control of the fusion protein GAL4 DBD-GR and therefore to a dose-dependent increase of the luminescence signal. Binding of molecules which repress beclomethasone-induced gene expression of the luciferase gene under the control of the fusion protein GAL4 DBD-GR leads to a dose-dependent reduction of the luminescence signal.
The reporter cell line CHO-Gal4/GR consisted of a chinese hamster ovary (CHO) cell line (Leibniz Institute DSMZ—German Collection of Microorganisms and Cell Cultures GmbH: ACC-110) containing a firefly luciferase gene under the control of the GR ligand binding domain fused to the DNA binding domain (DBD) of GAL4 (GAL4 DBD-GR) stably integrated into CHO cells. This cell line was established by stable transfection of CHO cells with a GAL4-UAS-Luciferase reporter construct. In a subsequent step the ligand binding domain of the GR cloned into pIRES2-EGFP-GAL4 containing the DNA binding domain of GAL4 from pFA-AT2 was transfected. This fusion construct activated firefly luciferase expression under the control of a multimerized GAL4 upstream activation sequence (UAS). The signal of the emitted luminescence was recorded by the FLIPR^TETRA. This allowed for specific detection of ligand-induced activation of the GR and therefore for the identification of compounds with agonistic properties. The GAL4/UAS reporter was premixed with a vector that constitutively expressed Renilla luciferase, which served as an internal positive control for transfection efficiency.
The complete culture medium for the assay was: • DMEM F-12 (1:1) MIXTURE (LONZA cat. No: BE04-687F/U1) 500 mL • 5 mL of 100 mM Sodium Pyruvate (LONZA cat. No: BE12-115E) • 25 mL of 7.5% Sodium Bicarbonate (LONZA cat. No BE17-613E) • 6.5 mL of 1 M Hepes (LONZA cat. No: BE17-737E) • 5 mL of 100× Penicillin/Streptomycin (LONZA cat. No DE17-602E) • 50 mL of Fetal Bovine Serum (Euroclone cat. No ECS 0180L) • 0.25 mL of 10 mg/mL Puromycin (InvivoGen cat.: ant-pr-1) • 0.5 mL of 100 mg/mL Zeocin (InvivoGen cat.: ant-zn-1)
Cryo-preserved CHO-Gal4/GR cells were suspended in complete medium and 5000 cells/25 μl/well were seeded into the wells of 384-well polystyrene assay plates (Thermo Scientific, cat. #4332) and cultured at 37° C., 5% CO2 and 95% humidity. After 24 hours growth medium was carefully removed and replaced by 30111 Opti-MEM (GIBCO, cat. #31985062) as assay buffer. To test the compounds an 8-point half-log compound dilution curve was generated in 100% DMSO starting from a 2 mM stock and compounds were then diluted 1:50 in Opti-MEM. 10111 of compounds were then added to the wells containing 30 μl Opti-MEM resulting in a final assay concentration range from 10 μM to 0.003 μM in 0.5% DMSO. Compounds were tested at 8 concentrations in quadruplicate data points. […] Finally, cells were lysed with 20 μl of Triton/Luciferin solution and the signal of the emitted luminescence was recorded at the FLIPR^TETRA for 2 minutes. […]

Compound: Cc1nnc2n1-c1c(c(F)cc(-c3cccc4c3ccn4S(C)(=O)=O)c1C(F)F)NC2(C)C [Example 459, 9-(Difluoro-methyl)-6-fluoro-1,4,4-trimethyl-8-(1-methylsulfonyl-1H-indol-4-yl)-5H-[1,2,4]triazolo[4,3-a]quinoxaline]
- IC50 or EC50 (antagonist or agonist mode, not stated per compound): < 100 nM

Compound: COc1c(-c2cc(C)cc3c2ccn3S(C)(=O)=O)cc(F)c2c1-n1c(C)nnc1C(C)(C)N2 [Example 476, 6-Fluoro-9-methoxy-1,4,4-trimethyl-8-(6-methyl-1-methylsulfonyl-1H-indol-4-yl)-5H-[1,2,4]triazolo[4,3-a]quinoxaline]
- IC50 or EC50 (antagonist or agonist mode, not stated per compound): 100 to 1000 nM

Compound: COc1c(-c2cc(F)cc3c(C4CC4)c[nH]c23)cc(F)c2c1-n1c(C)nnc1C(C)(C)N2 [Example 478, 8-(3-Cyclopropyl-5-fluoro-1H-indol-7-yl)-6-fluoro-9-methoxy-1,4,4-trimethyl-5H-[1,2,4]triazolo[4,3-a]quinoxaline]
- IC50 or EC50 (antagonist or agonist mode, not stated per compound): < 100 nM

Compound: Cc1c(-c2cccc3c2ccn3S(=O)(=O)CC2CC2)cc(F)c2c1-n1c(C)nnc1C(C)(C)N2 [Example 491, 8-[1-(Cyclopropyl-methylsulfonyl)-1H-indol-4-yl]-6-fluoro-1,4,4,9-tetramethyl-5H-[1,2,4]triazolo[4,3-a]quinoxaline]
- IC50 or EC50 (antagonist or agonist mode, not stated per compound): < 100 nM

Compound: COc1cc(-c2c(C)c3c(c(F)c2F)NC(C)(C)c2nnc(C)n2-3)c2ccn(S(C)(=O)=O)c2c1 [Example 522, 6,7-Difluoro-8-(6-methoxy-1-methylsulfonyl-1H-indol-4-yl)-1,4,4,9-tetramethyl-5H-[1,2,4]triazolo[4,3-a]quinoxaline]
- IC50 or EC50 (antagonist or agonist mode, not stated per compound): 100 to 1000 nM

Compound: Cc1nnc2n1-c1c(c(F)cc(-c3cccc4c3ccn4S(C)(=O)=O)c1C1CC1)NC2(C)C [Example 474, 9-Cyclopropyl-6-fluoro-1,4,4-trimethyl-8-(1-methylsulfonyl-1H-indol-4-yl)-5H-[1,2,4]triazolo[4,3-a]quinoxaline]
- IC50 or EC50 (antagonist or agonist mode, not stated per compound): 100 to 1000 nM

Compound: CCS(=O)(=O)n1ccc2c(-c3cc(F)c4c(c3C(F)F)-n3c(C)nnc3C(C)(C)N4)cccc21 [Example 461, 9-(Difluoro-methyl)-8-[1-(ethylsulfonyl)-1H-indol-4-yl]-6-fluoro-1,4,4-trimethyl-5H-[1,2,4]triazolo[4,3-a]quinoxaline]
- IC50 or EC50 (antagonist or agonist mode, not stated per compound): 100 to 1000 nM

Compound: Cc1c(-c2cc(F)cc3c2ccn3C)c(F)c(F)c2c1-n1c(C)nnc1C(C)(C)N2 [Example 521, 6,7-Difluoro-8-(6-fluoro-1-methyl-1H-indol-4-yl)-1,4,4,9-tetramethyl-5H-[1,2,4]triazolo[4,3-a]quinoxaline]
- IC50 or EC50 (antagonist or agonist mode, not stated per compound): < 100 nM

Compound: Cc1c(-c2cccc3c2ccn3S(C)(=O)=O)c(F)c(Cl)c2c1-n1c(C)nnc1C(C)(C)N2 [Example 502, 6-Chloro-7-fluoro-1,4,4,9-tetramethyl-8-(1-methylsulfonyl-1H-indol-4-yl)-5H-[1,2,4]triazolo[4,3-a]quinoxaline]
- IC50 or EC50 (antagonist or agonist mode, not stated per compound): < 100 nM

Compound: COc1c(-c2cccc3c2ccn3S(C)(=O)=O)cc(F)c2c1-n1c(C)nnc1C(C)(C)N2 [Example 57, 6-Fluoro-9-methoxy-1,4,4-trimethyl-8-(1-methylsulfonyl-1H-indol-4-yl)-5H-[1,2,4]triazolo[4,3-a]quinoxaline]
- IC50 or EC50 (antagonist or agonist mode, not stated per compound): 100 to 1000 nM

Compound: COc1c(-c2cccc3c2ccn3S(=O)(=O)C2CC2)cc(F)c2c1-n1c(C)nnc1C(C)(C)N2 [Example 505, 8-[1-(Cyclopropylsulfonyl)-1H-indol-4-yl]-6-fluoro-9-methoxy-1,4,4-trimethyl-5H-[1,2,4]triazolo[4,3-a]quinoxaline]
- IC50 or EC50 (antagonist or agonist mode, not stated per compound): 100 to 1000 nM

Compound: Cc1c(-c2cccc3c2cnn3S(C)(=O)=O)cc(F)c2c1-n1c(C)nnc1C(C)(C)N2 [Example 378, 6-Fluoro-1,4,4,9-tetramethyl-8-(1-methylsulfonyl-1H-indazol-4-yl)-5H-[1,2,4]triazolo[4,3-a]quinoxaline]
- IC50 or EC50 (antagonist or agonist mode, not stated per compound): 1000 to 15000 nM

Compound: Cc1nnc2n1-c1c(c(F)c(F)c(-c3cc(F)cc4[nH]ccc34)c1C(F)(F)F)NC2(C)C [Example 516, 6,7-Difluoro-8-(6-fluoro-1H-indol-4-yl)-1,4,4-trimethyl-9-(trifluoromethyl)-5H-[1,2,4]triazolo[4,3-a]quinoxaline]
- IC50 or EC50 (antagonist or agonist mode, not stated per compound): < 100 nM

Compound: COCCn1ccc2c(-c3cc(F)c4c(c3OC)-n3c(C)nnc3C(C)(C)N4)cc(F)cc21 [Example 54, 6-Fluoro-8-[6-fluoro-1-(2-methoxy-ethyl)-1H-indol-4-yl]-9-methoxy-1,4,4-trimethyl-5H-[1,2,4]triazolo[4,3-a]quinoxaline]
- IC50 or EC50 (antagonist or agonist mode, not stated per compound): 100 to 1000 nM

Compound: Cc1c(-c2cccc3c2cnn3S(C)(=O)=O)c(F)c(F)c2c1-n1c(C)nnc1C(C)(C)N2 [Example 451, 6,7-Difluoro-1,4,4,9-tetramethyl-8-(1-methylsulfonyl-1H-indazol-4-yl)-5H-[1,2,4]triazolo[4,3-a]quinoxaline]
- IC50 or EC50 (antagonist or agonist mode, not stated per compound): 100 to 1000 nM

Compound: COc1c(-c2cc(C(F)(F)F)cc3c2ccn3S(C)(=O)=O)cc(F)c2c1-n1c(C)nnc1C(C)(C)N2 [Example 492, 6-Fluoro-9-methoxy-1,4,4-trimethyl-8-[1-methylsulfonyl-6-(trifluoromethyl)-1H-indol-4-yl]-5H-[1,2,4]triazolo[4,3-a]quinoxaline]
- IC50 or EC50 (antagonist or agonist mode, not stated per compound): 100 to 1000 nM

Compound: Cc1nnc2n1-c1c(c(F)c(F)c(-c3cccc4c3ccn4S(C)(=O)=O)c1C(F)(F)F)NC2(C)C [Example 500, 6,7-difluoro-1,4,4-trimethyl-8-(1-(methylsulfonyl)-1H-indol-4-yl)-9-(trifluoromethyl)-4,5-dihydro-[1,2,4]triazolo[4,3-a]quinoxaline]
- IC50 or EC50 (antagonist or agonist mode, not stated per compound): 100 to 1000 nM

Compound: Cc1c(-c2cccc3c2ccn3C2CC2)cc(F)c2c1-n1c(C)nnc1C(C)(C)N2 [Example 305, 8-(1-Cyclopropyl-1H-indol-4-yl)-6-fluoro-1,4,4,9-tetramethyl-5H-[1,2,4]triazolo[4,3-a]quinoxaline]
- IC50 or EC50 (antagonist or agonist mode, not stated per compound): < 100 nM

Compound: Cc1c(-c2cc(F)cc3c2ccn3S(C)(=O)=O)c(F)c(F)c2c1-n1c(C)nnc1C(C)(C)N2 [Example 447, 6,7-Difluoro-8-(6-fluoro-1-methylsulfonyl-1H-indol-4-yl)-1,4,4,9-tetramethyl-5H-[1,2,4]triazolo[4,3-a]quinoxaline]
- IC50 or EC50 (antagonist or agonist mode, not stated per compound): < 100 nM

Compound: Cc1c(-c2cc(F)cc3c(C)c[nH]c23)cc(F)c2c1-n1c(C3CC3)nnc1C(C)(C)N2 [Example 66, 1-Cyclopropyl-6-fluoro-8-(5-fluoro-3-methyl-1H-indol-7-yl)-4,4,9-trimethyl-5H-[1,2,4]triazolo[4,3-a]quinoxaline]
- IC50 or EC50 (antagonist or agonist mode, not stated per compound): 100 to 1000 nM

Compound: Cc1c(-c2cccc3c2ccn3S(=O)(=O)C(C)C)cc(F)c2c1-n1c(C)nnc1C(C)(C)N2 [Example 366, 6-Fluoro-8-[1-(isopropylsulfonyl)-1H-indol-4-yl]-1,4,4,9-tetramethyl-5H-[1,2,4]triazolo[4,3-a]quinoxaline]
- IC50 or EC50 (antagonist or agonist mode, not stated per compound): 1000 to 15000 nM
